Test [1] concerns epithelial carcinoma A431 cell line. As to the kind of experiment: MTT Cell Proliferation Assay, A431 cells. The conditions noted are these: for IC50: Homo sapiens, A-431, Table 11. It counts as cell-based. In short, it runs like this:
(§1)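 Viability was measured by mitochondrial MTT reduction after cells were exposed to compound for 3 days in reduced-serum medium. Inhibition was calculated per plate against 0.5% DMSO controls.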

The test system of a further test is MDBK line. As to the kind of experiment: MTT Cell Proliferation Assay, MDBK cells. The conditions noted are these: for IC50: Bos taurus, MDBK, Table 11, second of x/y(ratio): MDBK. Type of test: cell-based, bovine. In short, it runs like this:
as §1

Where [2] appears, read: standard at 23.5 μM final concentration.
Setting [3] is: standard at 31.125 μM final concentration.

This note sets out measurements from patent publication US20140179681A1, “METHODS AND COMPOSITIONS OF TARGETED DRUG DEVELOPMENT” (priority 2010, published 2014).

Like-named read-outs stand apart in the source and are kept apart here.

Take `CCc1cc2c(CN3CCN(Cc4ccc5c(c4)OCO5)CC3)cc(=O)oc2cc1O` [AD4-1734]: the IC50 came to 22.1 µM in test [1] (first of x/y(ratio): A431, unit inferred, read-out: MTT Follow-up (first value)); 22.8 µM in test [1] (first of x/y(ratio): A431, unit not printed (doses in μM), read-out: MTT Screen (first value)); 40.2 µM in the test with MDBK line (unit inferred, read-out: MTT Follow-up (second value)); 42.5 µM in the test on MDBK line (unit not printed (doses in μM), read-out: MTT Screen (second value)). The “activity in A431” value in test [1] (setting [2]) is listed as “less than 100%”; in test [1] (setting [3]) it was 100%. Besides, the “activity in MDBK cells” value in the test with MDBK line (setting [2]) is on record as 0; in the test with MDBK line (setting [3]), “less than 50%”.
Consider `Cc1cc(C)cc(NS(=O)(=O)c2ccc(NC(=S)Nc3ccccc3)cc2)c1` [AD4-11091], for which, in test [1] (Table 10, first of x/y(ratio): A431, three day treatment, unit not printed (doses in μM)), the “MTT assay (first value)” value was “non-convergent”.
